# Like-named read-outs stand apart in the source and are kept apart here. Starred links: 1 amine or outer side, 2 acyl side, 3 side chain; linkers in the order of their positions; H or OH if unused. Positions of bridges follow the written chain, without caps; N, C: chain ends. Non-standard residues stand in square brackets, D forms with d. Residues, ends and D or L forms follow the SMILES beside them. *: point of attachment. Phe(3-NHCO(CH2)3SO2NH2) = N[C@@H](Cc1cccc(NC(=O)CCCS(N)(=O)=O)c1)C(=O)O; DOTA = O=C(O)CN1CCN(CC(=O)O)CCN(CC(=O)*)CCN(CC(=O)O)CC1; mXylylene = c1cc(C[*:1])cc(C[*:2])c1; X1 = O=C(CN1CCN([*:1])CC1)[*:2]
# Tests used:
# [1] = Pharmacokinetics after single i.v. dose in healthy male beagle dogs; format: in vivo; conditions: dog; for concentration at 24 h / dose excreted at 24 h: iv; for concentration at 24 h: 24 h urine, read-out: Mean amount of unchanged compound excreted in urine; for dose excreted at 24 h: urine, read-out: Dose excreted unchanged in urine
# Description: The pharmacokinetics of DPI-4452 after a single intravenous (i.v.) dose was investigated in healthy dogs. […] Plasma and urine samples collected after dosing were analyzed using a LC-HRMS (liquid chromatography coupled with high-resolution mass spectrometry) assay method. Concentration values were used for pharmacokinetic calculations.
# DPI 4452 was formulated in 0.1 M HEPES pH 7.0 at the final concentrations of 0.05 and 0.4 mg/mL for dosing at 0.1 and 0.8 mg/kg, respectively. Male beagle dogs (3 animals per dose level; overall 8.9 to 12.4 kg body weight) were administered intravenously (bolus) in a 2 mL/kg dosing volume. Blood samples were collected in K2EDTA tubes at 5 min, 15 min, 30 min, 1 h, 2 h, 4 h, 6 h, 24 h, and urine was collected over 24 hours post dose. The blood samples were kept on wet ice until plasma separation by centrifugation within 60 min after sampling. The plasma samples were transferred into plastic tubes, frozen and stored at −80° C. until analysis.
# Plasma and urine samples were analyzed by LC-HRMS after solid phase extraction, using DPI-4501 as internal standard. Chromatographic separation was run on a Waters Acquity HSS T3 C18 2.1×50 mm, 1.8 μm column. Detection was achieved on a Sciex AP16600 TOF mass spectrometer. The lower limit of quantification was 2.00 ng/mL in urine and plasma.
# The NCA pharmacokinetic analysis of plasma concentration data was conducted using Phoenix WinNonlin 6.3 software. Nominal doses were used for all animals. The terminal phase half-life (T1/2) was calculated by least-squares regression analysis of the terminal linear part of the log concentration-time curve. The area under the plasma concentration-time curve (AUC) was determined with the linear trapezoidal rule for increasing values and log trapezoidal rule for decreasing values up to the last measurable concentration.
# [2] = Functional observation battery (FOB), central nervous system, in dogs; format: in vivo; conditions: dog, FOB 1 hour after dosing
# Text: (§1) The test item treatment led to unaffected body weights, weight gains, and food intake. Likewise, no treatment-related abnormalities were reported during ophthalmic examinations, urinalysis, blood biochemistry, coagulation, and hematology investigations. There were no related organ weight changes and macroscopic and microscopic observations at early and late necropsies. Jacketed external telemetry was used to evaluate the potential cardiovascular and respiratory effects in the Subset B. Cardiorespiratory telemetry recordings were performed during the pre-test, Day 1 and 14. […] Arterial blood pressure parameters (systolic and diastolic blood pressure and mean arterial pressure) were measured continuously during consecutive 30-minute periods at pre-dose and for up to 6 h after dosing and over consecutive 60-minute periods up to 24 h after dosing. The respiratory rate was monitored on the pre-test, Day 1 and Day 14 at 0.5, 1, 2, 3, 4, 6, 8, 12, 16, 20, and 24 h. […] The potential effects on central nervous system parameters were evaluated under restrained and non-restrained conditions using a FOB in Subset A. Neurologic, autonomic, and behavioral investigations were performed in the pre-test, pre-dose, and 1 hour after dosing on Day 1.
# SK-RC-52 tumor = assay: Biodistribution of In-111-labeled compounds by SPECT/CT in SK-RC-52 tumor-bearing mice, with or without gelofusine; format: in vivo, mouse
# Description: (§2) The effect on tumor uptake of prior injection of gelofusine for kidney protection was investigated in mice bearing the SK-RC-52 tumor. Biodistribution was evaluated using in vivo SPECT/CT imaging.
# (§3) The study was performed in female NMRI nude mice (approximately 6 weeks of age) from Janvier Labs, France, housed up to 5 mice per cage.
# (§4) The column was washed with 2 mL water, and then the final product was eluted from the column in EtOH solution (50%) • The sample was formulated in PBS to the final concentration of 150 MBq/mL and 5 nmol/mL.
# (§5) HT-29 cells were cultured in McCoy's 5a Medium Modified (Sigma #M9309). For inoculation of HT-29 cells, cells were harvested, washed twice in PBS and resuspended at 5×10^7 cells/mL in PBS. Cells were kept on ice until inoculation.
# (§6) Animals were anaesthetized (isoflurane, 2-4% in ambient air supplemented with 100% O2) prior to tumor inoculation. The tumor cells (100 μL suspension of either SK-RC-52 cells (2×10^6 cells/animal) or HT-29 cells (5×10^6 cells/animal)) were subcutaneously inoculated in the right flank using a 1-mL syringe equipped with a 27G needle. Tumor growth and animal weight were measured twice per week. Tumor size was measured by caliper and the volume was estimated using the following formula: 0.52×(length×width^2). When tumor sizes reached 150-250 mm^3, animals were randomized into groups (n=3) of similar average tumor volume and body weight.
# (§7) CT was performed with helical scan, 300 ms exposure, reconstruction resolution of 250 μm. SPECT was performed with multi-pinhole scan and a 30 s frame time. For the quantification of the radioactivity uptake, regions of interests (ROIs) were drawn over the tumor, kidney, liver, and heart (estimate of blood) identified on the images. Uptake was expressed as percent of injected dose per gram tissue (% ID/g).
# [3] = as above; format: in vivo, mouse; conditions: mouse, in vivo
# Description: as §2, §3, §4, §5, §6, §7
# human CAIX = molecular target: T1, human CAIX (Homo sapiens, UniProt Q16790); assay: Surface Plasmon Resonance (SPR) binding to captured human CAIX (Biacore T200); conditions: 25° C.
# T1 construct: purchased Sino Biological 10107-H02H
# Description: Surface Plasmon Resonance (SPR) studies were performed on a Biacore™ T200 using a ligand capture approach. Basically, anti-human Fc antibodies were immobilized on the surface of a sensor chip and CAIX was captured on the functionalized surface via its Fc Tag. Then, each compound was injected at increasing concentrations on the captured CAIX in order to measure the in real-time interaction of the compound to its target (i.e., the captured CAIX). The in real-time monitoring of the association and dissociation of the interaction gives access to the interaction kinetics parameters (i.e., the association and dissociation rate constants and the resulting affinity constants). […]
# • For each measurement, the raw surface plasmon resonance response (RU) was plotted against time (s) as a sensorgram using the Biacore™ T200 Control Software. • Raw data were corrected by double referencing with subtraction of the signal of both the reference flow-cell and the blank cycle. • The association and dissociation rate constants (ka and kd, respectively), as well as the dissociation constant KD and dissociation half-life t½ were determined from the corrected sensorgrams by fitting the data to a 1:1 Langmuir binding model with the Biacore™ T200 evaluation software.
# [4] = Cardiovascular and respiratory safety pharmacology (jacketed external telemetry) in dogs; format: in vivo; conditions: dog, any dose or timepoint
# Text: as §1
# [5] = Allometric prediction of human PK parameters from mouse and dog PK; conditions: allometry from mouse and dog
# Description: From the variety of CL, Vd and T1/2 determined in the animal studies, the highest and lowest values for each species were retained, and allometry was conducted on all the combinations to obtain a range for each predicted human PK parameter.
structure (smiles),measurement,setting,value
"CC(C)C[C@@H]1NC(=O)[C@H](Cc2cccc(NC(=O)CCCS(N)(=O)=O)c2)NC(=O)[C@H](CC(=O)O)NC(=O)[C@H]2CCCN2C(=O)[C@H](CCC(=O)O)NC(=O)[C@@H](NC(=O)[C@H](CCC(N)=O)NC(=O)CN2CCN(C(=O)CN3CCN(CC(=O)O)CCN(CC(=O)O)CCN(CC(=O)O)CC3)CC2)CSCc2cccc(c2)CSC[C@@H](C(N)=O)NC(=O)[C@H](CO)NC(=O)[C@H](Cc2c[nH]c3ccccc23)NC(=O)[C@H]([C@@H](C)O)NC1=O [DPI-4452, DOTA-PPAc-Gln-[Cys(3MeBn)-Glu-pro-Asp-Af3(Cpsu)-Leu-Thr-Trp-Ser-Cys]-NH2] ({DOTA}-[X1]QCE[dP]D[Phe(3-NHCO(CH2)3SO2NH2)]LTWSC-NH2; linker 3-12 via mXylylene)",Time up to which plasma concentration was quantifiable,[1]; i.v. 0.1 mg/kg,up to 2 h
same,Time up to which plasma concentration was quantifiable,[1]; i.v. 0.8 mg/kg,≤ 4 h
same,concentration at 24 h,[1]; i.v. 0.1 mg/kg,26.8 ng/mL
same,concentration at 24 h,[1]; i.v. 0.8 mg/kg,191 ng/mL
same,dose excreted at 24 h,[1]; i.v. 0.1 mg/kg,0.29%
same,dose excreted at 24 h,[1]; i.v. 0.8 mg/kg,0.14%
same,"Central nervous system (neurologic, autonomic, behavioral domains)",[2],No effects were observed on the central nervous system
same,Time to peak uptake in tumor,SK-RC-52 tumor; SK-RC-52,1 h
same,% remaining tumor uptake at 24 h p.i.,"SK-RC-52 tumor; SK-RC-52, Mean ± SEM",73.3 ± 0.8%
same,Blood uptake at 4 h p.i.,SK-RC-52 tumor; SK-RC-52 mice,0.05 ± 0.01 % ID/g
same,Kidney uptake at 24 h p.i.,SK-RC-52 tumor; SK-RC-52 mice,0.95 ± 0.05 % ID/g
same,Liver uptake at 4 h p.i.,SK-RC-52 tumor; SK-RC-52 mice,0.18 ± 0.04 % ID/g
same,tissue uptake,"[3]; SK-RC-52, Mean ± SEM, N=3, read-out: Peak Tumor Uptake",9.42 ± 1.53 %ID/g
same,tissue uptake,"[3]; SK-RC-52 mice, read-out: Peak Kidney uptake",3.43 ± 0.24 %ID/g
same,t1/2 (dissociation half-life),human CAIX,99 min
same,"Cardiovascular or respiratory parameters (heart rate, arterial blood pressure, ECG, respiratory rate)",[4],no related effect on cardiovascular or respiratory parameters
same,Predicted human clearance (CL),[5],3.57 to 13.0 mL/min/kg
same,Predicted human terminal half-life (T1/2),[5],10.2 to 88.2 min
same,Predicted human volume of distribution (Vd),[5],0.189 to 0.455 L/kg
